ChEMBL document CHEMBL3352623, “Improved antiproliferative activity of 1,3,4-thiadiazole-containing histone deacetylase (HDAC) inhibitors by introduction of the heteroaromatic surface recognition motif” (Bioorg Med Chem, 2014)

How the values were obtained:
[1] = molecular target: Histone deacetylase (HDAC1 and HDAC2) (Homo sapiens, UniProt Q13547+Q92769); test: Inhibition of HDAC1/HDAC2 in human HeLa cell extract incubated for 5 mins prior to substrate addition measured after 30 mins by microtitre plate reader analysis; format: cell-based
K562 = test: Antiproliferative activity against human K562 cells after 48 hrs by MTT assay; format: functional, cell-based; details: K562, 48 h
[2] = Antiproliferative activity against human PC3 cells after 48 hrs by MTT assay; format: functional, cell-based; details: PC-3, 48 h
MDA-MB-231 = test: Antiproliferative activity against human MDA-MB-231 cells after 48 hrs by MTT assay; format: functional, cell-based; details: MDA-MB-231, 48 h

O=C(CCCCCC(=O)Nc1nnc(-c2ccc(Br)cc2)s1)NO
IC50 [1]: 1.285 µM

O=C(CCCCCC(=O)Nc1nnc(-c2ccc(N3CCOCC3)cc2)s1)NO
IC50 [1]: > 5 µM

CN(C)c1ccc(-c2nnc(NC(=O)CCCCCC(=O)NO)s2)cc1
IC50 [1]: > 5 µM

COc1ccc(-c2nnc(NC(=O)CCCCCC(=O)NO)s2)cc1
IC50 [1]: 0.437 µM

COc1ccc(-c2nnc(NC(=O)CCCCCC(=O)NO)s2)cc1OC
IC50 [1]: 0.487 µM

Cc1ccc(-c2nnc(NC(=O)CCCCCC(=O)NO)s2)cc1
IC50 [1]: 0.422 µM

O=C(CCCCCC(=O)Nc1nnc(-c2ccc(-c3ccccc3)cc2)s1)NO
IC50 [1]: > 5 µM

O=C(CCCCCC(=O)Nc1nnc(-c2ccc(F)cc2)s1)NO
IC50 [1]: 0.741 µM

O=C(CCCCCC(=O)Nc1nnc(-c2ccc(Cl)cc2)s1)NO
IC50 [1]: 0.988 µM

O=C(CCCCCC(=O)Nc1nnc(-c2cccc(Cl)c2)s1)NO
IC50 [1]: 0.847 µM

O=C(CCCCCC(=O)Nc1nnc(-c2ccccc2Cl)s1)NO
IC50 [1]: 0.507 µM

O=C(CCCCCC(=O)Nc1nnc(-c2ccc(I)cc2)s1)NO
IC50 [1]: 0.875 µM

CS(=O)(=O)c1ccc(-c2nnc(NC(=O)CCCCCC(=O)NO)s2)cc1
IC50 [1]: 0.721 µM

O=C(CCCCCC(=O)Nc1nnc(-c2ccc([N+](=O)[O-])cc2)s1)NO
IC50 [1]: 0.709 µM

O=C(CCCCCC(=O)Nc1nnc(-c2ccc(C(F)(F)F)cc2)s1)NO
IC50 [1]: 1.154 µM

O=C(CCCCCCC(=O)Nc1nnc(-c2ccc(N3CCOCC3)cc2)s1)NO
IC50 [1]: > 5 µM

O=C(CCCCCCC(=O)Nc1nnc(-c2ccc(-c3ccccc3)cc2)s1)NO
IC50 [1]: > 5 µM

O=C(CCCCCCC(=O)Nc1nnc(-c2cccc(Br)c2)s1)NO
IC50 [1]: 1.215 µM

O=C(CCCCCCC(=O)Nc1nnc(-c2ccccc2Br)s1)NO
IC50 [1]: 0.526 µM

O=C(CCCCCCC(=O)Nc1nnc(-c2ccc(I)cc2)s1)NO
IC50 [1]: > 5 µM

CS(=O)(=O)c1ccc(-c2nnc(NC(=O)CCCCCCC(=O)NO)s2)cc1
IC50 [1]: 0.598 µM

O=C(CCCCCCC(=O)Nc1nnc(-c2ccc(C(F)(F)F)cc2)s1)NO
IC50 [1]: > 5 µM

O=C(CCCCCC(=O)Nc1nnc(-c2cccc3ccccc23)s1)NO
IC50 [1]: 3.186 µM

O=C(CCCCCC(=O)Nc1nnc(-c2ccc3ccccc3c2)s1)NO
IC50 [1]: > 5 µM

O=C(CCCCCC(=O)Nc1nnc(-c2cccnc2)s1)NO
IC50 [1]: 0.325 µM
IC50 (K562): > 60 µM
IC50 [2]: 54.4 µM
IC50 (MDA-MB-231): 11.7 µM

O=C(CCCCCC(=O)Nc1nnc(-c2ccncc2)s1)NO
IC50 [1]: 0.411 µM
IC50 (K562): > 60 µM
IC50 [2]: > 60 µM
IC50 (MDA-MB-231): 40.1 µM

O=C(CCCCCC(=O)Nc1nnc(-c2ccco2)s1)NO
IC50 [1]: 0.434 µM

O=C(CCCCCC(=O)Nc1nnc(-c2cccs2)s1)NO
IC50 [1]: 0.411 µM
IC50 (K562): > 60 µM
IC50 [2]: > 60 µM
IC50 (MDA-MB-231): 15.2 µM

O=C(CCCCCCC(=O)Nc1nnc(-c2cccc3ccccc23)s1)NO
IC50 [1]: > 5 µM

O=C(CCCCCCC(=O)Nc1nnc(-c2ccc3ccccc3c2)s1)NO
IC50 [1]: > 5 µM

O=C(CCCCCCC(=O)Nc1nnc(-c2cccnc2)s1)NO
IC50 [1]: 0.386 µM
IC50 (K562): 4.36 µM
IC50 [2]: 7.98 µM
IC50 (MDA-MB-231): 1.87 µM

O=C(CCCCCCC(=O)Nc1nnc(-c2ccncc2)s1)NO
IC50 [1]: 0.286 µM
IC50 (K562): 4.15 µM
IC50 [2]: 7.75 µM
IC50 (MDA-MB-231): 4.69 µM

O=C(CCCCCCC(=O)Nc1nnc(-c2ccco2)s1)NO
IC50 [1]: 0.436 µM

O=C(CCCCCCC(=O)Nc1nnc(-c2cccs2)s1)NO
IC50 [1]: 0.31 µM
IC50 (K562): 1.56 µM
IC50 [2]: 3.6 µM
IC50 (MDA-MB-231): 1.21 µM

O=C(CCCCCCC(=O)Nc1ccccc1)NO [VORINOSTAT]
IC50 (MDA-MB-231): 2.29 µM
